Laboratory results reported in patent publication US20060039911A1, “Method for the treatment of gastroesophageal reflux disease” (Aphton Corporation, priority 1998, published 2006).

Legend:
[1] = tested on: GERD patients; conditions: cited from earlier work
[2] = tested on: parietal cell; conditions: meal-induced gastric acid secretion; cited from earlier work
[3] = biological target: gastrin-17 (Homo sapiens, UniProt P01350); experiment: Serum anti-gastrin antibody response of Gastrimmune-immunized mice (ELISA); format: in vivo
Source text: Gastrin neutralization was achieved by using the immunological composition Gastrimmune which is composed of the amino terminal domain of gastrin-17 linked, via an amino acid or peptide spacer to diphtheria toxoid which acts as the immunogenic carrier.
Serum antibody titers rose within 2 weeks of the initial immunization to levels with an antigen binding capacity of >10^−9M. The presence of anti-gastrin antibodies within the serum of Gastrimmune-immunized mice was confirmed by using an ELISA. As expected, no bound gastrin levels were detected in animals immunized with control immunogen.

[4] = tested on: pH of the stomach contents; experiment: pH of the stomach contents of treated pigs; format: in vivo
Source text: FIG. 1 illustrates experimental data concerning the percentage of time that the gastric contents remain above pH 3 in different groups of pigs treated with ranitidine (4 animals), omeprazole (5 animals) and hG17(1-9) (4 animals), as compared to six (6) control animals.
FIG. 2 illustrates the percentage of time that the gastric contents remain above pH 4 in a group of untreated (control) pigs […] and groups of pigs treated with human gastrin 17(1-9)Ser9-Diphtheria […] (4 animals), ranitidine (4 animals) and omeprazole (5 animals) as described in FIG. 1.
FIG. 3 depicts the baseline median pH of the gastric contents of a group of six (6) untreated (control) pigs and groups of four (4) pigs treated with human G17(1-9)Ser9-Diphtheria Toxoid, […] pigs with ranitidine and five (5) pigs with omeprazole as described in FIG. 1.
In the following Examples, the anti G17 immunogenic composition, 150 mg ranitidine and 60 mg omeprazole were administered to pigs and the resulting changes in the pH of the stomach contents before and after treatment were measured. Specifically, following the stomach pH measurements of the untreated control state of each pig, the stomach pH of the same pigs was measured after the animals were treated with either ranitidine, or composition of human gastrin 17(1-9)-h(G 17)ser9-Diphtheria Toxoid (Gastrimmune), or omeprazole administered individually and at different times in each of four animals (pigs).

[5] = 400-800 mg cimetidine and 150-300 mg ranitidine twice daily

## CN/C(=N/CCSCc1nc[nH]c1C)NC#N [cimetidine]
[1]; [5]
  patients with healing of esophagitis, endoscopically determined (mean): 48%
  patients with symptomatic relief of GERD (mean): 61%
[1]; GERD patients, peptic ulcer doses and durations
  efficacy in GERD patients at doses and durations proven effective in healing peptic ulcers: not effective in GERD

## Cc1c(OCC(F)(F)F)ccnc1C[S+]([O-])c1nc2ccccc2[nH]1 (stereo not drawn) [lansoprazole]
[1]; human, in vivo
  effectiveness in alleviating the symptoms of GERD esophagitis compared with histamine H2 blockers: more effective than histamine H2 blockers

## heptadecagastrin [Peptide G17]
[2]
  potency as stimulator of gastric acid secretion relative to histamine: 1500 times

## human gastrin 17(1-9)-h(G 17)ser9-Diphtheria Toxoid [Gastrimmune]
[3]; Gastrimmune-immunized mice
  presence of anti-gastrin antibodies within the serum (ELISA): confirmed
[3]; mouse, in vivo
  cross-reactivity of the antibodies raised: cross-reacted with both amidated and glycine-extended gastrin-17
[3]; within 2 weeks of the initial immunization
  antigen binding capacity of serum antibody titers: > 10^−9 M
[4]
  inhibition of acid output from the stomach: inhibited stomach acid output at a level of effectiveness between ranitidine and omeprazole
[4]; FIG. 1, 150 mg ranitidine, 60 mg omeprazole
  time that the gastric contents remain above pH 3: for a longer period of time than in the pigs treated with ranitidine
[4]; FIG. 2, 150 mg ranitidine, 60 mg omeprazole
  time that the gastric contents remain above pH 4: for a longer period of time than in the pigs treated with ranitidine
[4]; FIG. 3
  median pH of the stomach contents: higher than ranitidine treated pigs
